Test: Tissue distribution by quantitative whole-body autoradiography (QWBA)
Type: in vivo, male Sprague Dawley and Long-Evans rats
Details: for Cmax Ratio (PO/IV) / AUCall Ratio (PO/IV): 15 mg/kg, Group 7 vs Group 4
Method: The study utilized 4 groups of male SD rats (albino), and 3 groups of male LE rats (pigmented); a total of 39 rats. All animals were obtained from Hilltop Lab Animals, Inc. (Scottdale, Pa.). […] Rats in Group 5 were administered a single 2-h IV infusion of [^14C]brincidofovir at a target dose of 2 mg/kg. […] Three dosing formulations (one for high dose IV, one for low dose IV, and one for PO dose) were prepared at QPS on the day of dosing. The IV formulation for Groups 1, 2, 3, and 4 contained a vehicle of 10 mM sodium phosphate buffer in 5% dextrose solution at pH 8.0(±0.1).
Each animal, at their respective termination time points, was euthanized for QWBA analysis immediately after blood collection. One rat per time point per Group was euthanized as listed below.
The blood samples were maintained on wet ice (approximately 4° C.) and then centrifuged to obtain plasma within 1 h of the blood collection time. Centrifuge settings were recorded in the study notebook. Duplicate aliquots of plasma (0.050 mL) were analyzed for radioactivity using direct counting by LSC, and residual plasma was stored at approximately −70° C. and was saved for possible future analysis under a separate study protocol. Residual red blood cells were discarded as radioactive waste.
The pinna, distal limbs, hair, and tail were removed from each frozen carcass and each frozen carcass was embedded in an aqueous suspension of approximately 2% (w/v) carboxymethylcellulose and frozen into a block. The blocks were stored at approximately −20° C. prior to sectioning. Each blocked carcass was mounted on the object stage of a cryomicrotome (Leica CM3600 Cryomacrocut, Nussloch, Germany and Vibratome 9800, St. Louis, Mo.) maintained at approximately −20° C. and internal standards (3), which were plasma fortified with [^14C]-glucose at one concentration (approximately 0.05 μCi/mL), were placed into the frozen blocks, prior to sectioning, and were used for section thickness quality control. A number of whole-body sections (approximately 40 μm thick) were taken in the sagittal plane at various levels of interest using a whole-body cryomicrotome set at −20° C. Sagittal sections (20-50 μm thick) of frozen carcasses were exposed to phosphor imaging plates. Regions of images in tissues were converted to concentrations using standards. All of the major tissues, organs, and biological fluids were represented.
Tissue concentration data was determined for the following tissues and/or contents: adipose (brown and white), adrenal gland, bile (in duct), blood (cardiac), bone, bone marrow, brain (cerebrum, cerebellum, medulla), cecum (and contents), large intestine (and contents), epididymis, esophagus, eye (uvea and lens), Harderian gland, heart, kidney (cortex and medulla), liver, lung, lymph node, pancreas, pituitary gland, prostate gland, salivary gland, seminal vesicles, skeletal muscle, skin (pigmented and non-pigmented), small intestine (and contents), stomach (gastric mucosa and contents), spleen, spinal cord, testis, thymus, thyroid, and urinary bladder (and contents).
The imaging plate and sections were placed in light-tight exposure cassettes, in a copper-lined lead safe, for a 4-day exposure at room temperature. […] Quantification was performed by image densitometry using MCD image analysis software (v. 7.0, Interfocus Imaging Ltd) and a standard curve constructed from the integrated response [i.e., Molecular Dynamics Counts per square millimeter (MDC/mm^2)] and the nominal concentrations of the ^14C-calibration standards. The concentrations of radioactivity were expressed as the μg equivalents of [^14C]brincidofovir per gram sample (μg equiv/g). A lower limit of quantification (LLOQ) was applied to the data (See section 6.7.4).
Tissue concentrations that fell below the LLOQ were identified as being below the quantification limit (BQL). Tissue areas that were not visualized on autoradiographic images were identified as no sample (NS) and reported as BQL.

In the case of `CCCCCCCCCCCCCCCCOCCCOP(=O)(O)CO[C@H](CO)Cn1ccc(N)nc1=O` [[^14C] brincidofovir], the “Cmax Ratio (PO/IV)” value (Liver) is reported as 0.16, the AUCall (Liver, 2 h IV infusion 15 mg/kg, Group 4) is reported as 2149.7645 μg equiv · h/g and the “Tissue Concentration (168 h)” value (Liver, 2 h IV infusion 15 mg/kg, Group 4, LLOQ 0.036) is reported as 0.451 μg equiv/g. The “Tissue Concentration (168 h)” value (Liver, PO 15 mg/kg, Group 7, LLOQ 0.034) was 0.393 μg equiv/g, the AUCall (Liver, PO 15 mg/kg, Group 7) was 1426.6340 μg equiv · h/g and the “AUCall Ratio (PO/IV)” value (Lung) was 0.29. For the same compound, the “Cmax Ratio (PO/IV)” value (Lung) was 0.16, the AUCall (Lung, 2 h IV infusion 15 mg/kg, Group 4) was 180.1960 μg equiv · h/g and the “Tissue Concentration (168 h)” value (Lung, 2 h IV infusion 15 mg/kg, Group 4, LLOQ 0.036) was 0.178 μg equiv/g. For the same compound, the “Tissue Concentration (168 h)” value (Lung, PO 15 mg/kg, Group 7, LLOQ 0.034) was 0.065 μg equiv/g, the AUCall (Lung, PO 15 mg/kg, Group 7) was 53.1145 μg equiv · h/g and the “AUCall Ratio (PO/IV)” value (Lymph Node) was 0.41. For the same compound, the “Cmax Ratio (PO/IV)” value (Lymph Node) was 0.11, the AUCall (Lymph Node, 2 h IV infusion 15 mg/kg, Group 4) was 208.8530 μg equiv · h/g and the “Tissue Concentration (168 h)” value (Lymph Node, 2 h IV infusion 15 mg/kg, Group 4, LLOQ 0.036) was 0.247 μg equiv/g. The “Tissue Concentration (168 h)” value (Lymph Node, PO 15 mg/kg, Group 7, LLOQ 0.034) was 0.129 μg equiv/g, the AUCall (Lymph Node, PO 15 mg/kg, Group 7) was 85.04 μg equiv · h/g and the “AUCall Ratio (PO/IV)” value (Pancreas) was 0.29. The “Cmax Ratio (PO/IV)” value (Pancreas) was 0.13, the AUCall (Pancreas, 2 h IV infusion 15 mg/kg, Group 4) was 36.2010 μg equiv · h/g and the “Tissue Concentration (168 h)” value (Pancreas, 2 h IV infusion 15 mg/kg, Group 4, LLOQ 0.036) was “BQL”. For the same compound, the “Tissue Concentration (168 h)” value (Pancreas, PO 15 mg/kg, Group 7, LLOQ 0.034) was “BQL”, the AUCall (Pancreas, PO 15 mg/kg, Group 7) was 10.3720 μg equiv · h/g and the “AUCall Ratio (PO/IV)” value (Pituitary Gland) was 0.20. For the same compound, the “Cmax Ratio (PO/IV)” value (Pituitary Gland) was 0.05, the AUCall (Pituitary Gland, 2 h IV infusion 15 mg/kg, Group 4) was 155.1085 μg equiv · h/g and the “Tissue Concentration (168 h)” value (Pituitary Gland, 2 h IV infusion 15 mg/kg, Group 4, LLOQ 0.036) was 0.189 μg equiv/g. The “Tissue Concentration (168 h)” value (Pituitary Gland, PO 15 mg/kg, Group 7, LLOQ 0.034) was 0.042 μg equiv/g, the AUCall (Pituitary Gland, PO 15 mg/kg, Group 7) was 30.5073 μg equiv · h/g and the “AUCall Ratio (PO/IV)” value (Prostate Gland) was 0.62. The “Cmax Ratio (PO/IV)” value (Prostate Gland) was 0.30, the AUCall (Prostate Gland, 2 h IV infusion 15 mg/kg, Group 4) was 24.3415 μg equiv · h/g and the “Tissue Concentration (168 h)” value (Prostate Gland, 2 h IV infusion 15 mg/kg, Group 4, LLOQ 0.036) was “BQL”. The “Tissue Concentration (168 h)” value (Prostate Gland, PO 15 mg/kg, Group 7, LLOQ 0.034) was “BQL”, the AUCall (Prostate Gland, PO 15 mg/kg, Group 7) was 7.6578 μg equiv · h/g and the “AUCall Ratio (PO/IV)” value (Salivary Gland) was 0.15. The “Cmax Ratio (PO/IV)” value (Salivary Gland) was 0.09, the AUCall (Salivary Gland, 2 h IV infusion 15 mg/kg, Group 4) was 60.9180 μg equiv · h/g and the “Tissue Concentration (168 h)” value (Salivary Gland, 2 h IV infusion 15 mg/kg, Group 4, LLOQ 0.036) was 0.056 μg equiv/g. The “Tissue Concentration (168 h)” value (Salivary Gland, PO 15 mg/kg, Group 7, LLOQ 0.034) was “BQL”, the AUCall (Salivary Gland, PO 15 mg/kg, Group 7) was 9.1933 μg equiv · h/g and the “AUCall Ratio (PO/IV)” value (Seminal Vesicles) was 0.17. The “Cmax Ratio (PO/IV)” value (Seminal Vesicles) was 0.45, the AUCall (Seminal Vesicles, 2 h IV infusion 15 mg/kg, Group 4) was 297.3580 μg equiv · h/g and the “Tissue Concentration (168 h)” value (Seminal Vesicles, 2 h IV infusion 15 mg/kg, Group 4, LLOQ 0.036) was 0.361 μg equiv/g. For the same compound, the “Tissue Concentration (168 h)” value (Seminal Vesicles, PO 15 mg/kg, Group 7, LLOQ 0.034) was 0.063 μg equiv/g, the AUCall (Seminal Vesicles, PO 15 mg/kg, Group 7) was 50.2500 μg equiv · h/g and the “AUCall Ratio (PO/IV)” value (Skeletal Muscle) was 0.13. For the same compound, the “Cmax Ratio (PO/IV)” value (Skeletal Muscle) was 0.16, the AUCall (Skeletal Muscle, 2 h IV infusion 15 mg/kg, Group 4) was 10.3485 μg equiv · h/g and the “Tissue Concentration (168 h)” value (Skeletal Muscle, 2 h IV infusion 15 mg/kg, Group 4, LLOQ 0.036) was “BQL”. For the same compound, the “Tissue Concentration (168 h)” value (Skeletal Muscle, PO 15 mg/kg, Group 7, LLOQ 0.034) was “BQL”, the AUCall (Skeletal Muscle, PO 15 mg/kg, Group 7) was 1.3265 μg equiv · h/g and the “AUCall Ratio (PO/IV)” value (Skin (non-pigmented)) was 0.10. For the same compound, the “Cmax Ratio (PO/IV)” value (Skin (non-pigmented)) was 0.17 and the AUCall (Skin (non-pigmented), 2 h IV infusion 15 mg/kg, Group 4) was 146.2340 μg equiv · h/g.

From patent US20170368082A1, “FORMULATIONS OF BRINCIDOFOVIR” (priority 2016, published 2017)
